Reference: US9315818B2, “Plant expression constructs and methods of utilizing same” (priority 2006, dated 2016)

What was measured:
several fungi = settings: PRN spraying in field tests; U.S. Pat. No. 5,698,425; cited from earlier work
tomato plants = experiment: Vector replication, spread, reporter expression and symptoms in tomato plants (PCR, GUS staining); type: in vivo
Experimental: Propagation of the virus-plasmid vectors and their administration to plants—E. coli cells were transformed with IL-60 (SEQ ID NO: 2), IL-60-BS (SEQ ID NO: 1), IL-60-BS-GUS and IL-60-BS-GFP and propagated under ampicillin selection; the construct was extracted using standard procedures. IL-60-BS was administered directly into plants, without mediation by Agrobacterium. The stem, or leaf petiole, of the recipient plant was punctured by a hypodermic needle. A capillary tube was inserted into the resultant hole, and approximately 2 microgram of DNA (in 100 μl of 5 mM Tris-HCl; pH 8.5) were pipetted into the capillary tube until fully soaked by the plant. For large-scale applications, samples were delivered into plants by the BIM-LAB instrument (Bio-OZ biotechnologies, Yad Mordechai, Israel).
PCR analysis—PCR analysis was carried out according to standard procedures. DNA for PCR analysis was extracted as described in Bernatzky R. and Tanksley, S. D. [Theor. Appl. Genet. 72:314-321 (1986)], from leaves positioned at least 3 leaves above the point of administration. Tomato plants carry Geminivirus sequences in their genome [Ashby, M. K. et al., Plant Mol. Biol. 35, 313-321 (1997)]. Thus, it was also necessary to ascertain that PCR products were obtained from vector templates and not from native viral infection or plant sequences. Therefore, PCR tests were carried out with primers distinguishing IL-60 from TYLCV, or spanning the junction between IL-60 and the plasmid. • (i) primers distinguishing IL-60 from TYLCV; 977 (forward): gaa ggc tga act tcg aca g (SEQ ID NO: 16), 966 (reverse): att ggg ctg ttt cca tag ggc (SEQ ID NO: 17) • (ii) primers which amplify the junction between Bluescript and IL-60; 939 (forward) aga gac acc gat tca ttt caa c (SEQ ID NO: 18); 940 (reverse) gcg gat aac aat ttc aca cag (SEQ ID NO: 19).
In order to detect the presence of plasmids carrying reporter genes, PCR was performed with primers amplifying the reporter gene inserted into IL-60-BS. • iii) GUS specific primers: 408 (forward) gaa caa cga act gaa ctg gca gac (SEQ ID NO: 25); 167 (reverse) cag cgt aag ggt aat gcg ag (SEQ ID NO: 26). • iv) GFP specific primers: 895 (forward) ggc cga att cag taa agg aga ag (SEQ ID NO: 27); 345 (reverse) tgt gtg gac agg taa tgg (SEQ ID NO: 28).
TYLCV, IL-60, IL-60-BS and reporter gene derivative plasmids were either agroinoculated or injected into tomato plants and their replication and spread was monitored with symptom observation, PCR analysis and Southern blot. The expression of viral and reporter genes was assessed using PCR, Northern and Western analysis, GUS staining and GFP fluorescence as described above in methods and materials.

Bemisia tabaci = experiment: Transfer of IL-60-BS by Bemisia tabaci; type: in vivo; settings: insects fed on IL-60-BS-carrying tomato plants, transferred to healthy tomato plants; PCR
From the text: Assay for Transfer of IL-60-BS by Bemisia tabaci—Bemisia tabaci were allowed to feed on IL-60-BS-carrying tomato plants (15 insects per plant). Insects were then fed on sucrose and transferred to healthy tomato plants. DNA was extracted from both types of plants and used as a template for PCR using primers which amplify a sequence specific to IL-60 (e.g. SEQ ID NO: 16 and NO: 17) or other relevant primer pairs.
Wild TYLCV is transmitted by the whitefly, Bemisia tabaci. To test whether the viral vector is also transmitted through a viral natural transmitter, plants carrying the IL-60-BS vector were fed to B. tabaci.

plant genome = experiment: Southern blot for integration into the plant genome; type: in vivo, tomato; settings: BglII-cleaved vs uncleaved DNA
Experimental: Molecular analysis—Southern analysis was carried out according to standard procedures (e.g as set forth in Sambrook, J. & Russel, D. W. Molecular Cloning, Third Edition. Cold Spring Harbor Laboratory Press, Cold Spring Harbor (2001)). Probes for Southern analysis were labeled by the PCR-DIG procedure (Roche Molecular Biochemicals, Basel, Switzerland). DIG labeled probes (TYLCV-CP—SEQ ID NO: 40) which hybridize with nucleotides 530-908 of the sequence identified by GenBank Accession No. X15656 were prepared according to the manufacturers protocol. Northern and Western analyses were carried out according to standard procedures. Probes for Northern analysis were labeled as described for the Southern blot analysis. Detection of GUS and GFP activities were performed according to published procedures [Jefferson, R. A., EMBO J. 6, 3901-3907 (1987); Blumenthal, A., Plant Science 142, 93-99 (1999)]. Chemiluminescent probes for Western blots were prepared with the SuperSignal West Pico kit (Pierce, Rockford, Ill., USA), using polyclonal antibodies against TYLCV-CP (Bioreba, Reinach, Switzerland) All probes were prepared according to the respective manufacturer's protocol. […]
Southern analysis was done without shearing, and with or without cleaving DNA with BglII. Two major bands were detected in samples from IL-60-BS, as well as TYLCV-infected plants (lanes 3-6, and lane 2 respectively of FIG. 3a). […]

O=[N+]([O-])c1c(Cl)cccc1-c1c[nH]cc1Cl [PRN, Pyrrolnitrin]
reduction in infectivity of several fungi (several fungi): up to 8 fold

IL-60-BS: IL-60 with Bluescript II-KS+ plasmid inserted, interrupting rep and C4 (SEQ ID NO: 1)
efficiency of administration into plants (tomato plants; direct injection): over 90% | symptoms in injected plants (tomato plants; more than 64 injected tomato plants): did not present any symptom | persistence of vector after injection (tomato plants; tomato plants, PCR, duration of the plants life-span): 12 months | vector found / replication indicated by PCR, time post injection (tomato plants; tomato plants, leaves remote from the point of injection): 3 days | transmission of vector by insects to non-carrying plants (Bemisia tabaci): did not carry the IL-60-BS vector | integration into the plant genome (plant genome): had not been integrated into the plant's genome

IL-60: TYLCV-derived vector (SEQ ID NO: 2) with 60-nt coat protein deletion and frame shift
infection after agroinoculation (tomato plants; tomato plants agroinoculated with the multimeric form, kept until fruit set): systemic, but symptomless infection
